Results on 3 compounds are retold here after patent publication US8921424B2, “Histone deacetylase inhibitors, process for preparation and uses thereof” (Zhejiang Hisun Pharmaceutical Co. Ltd., priority 2007, dated 2014).

One data set concerns PC-3. The data set is described as follows: Xenograft model, PC-3. It counts as in vivo, mouse. As to conditions: i.p., 15 days.
Data set [1] has as its system SKOV-3. The data set is described as follows: Cell-based proliferation assay (SRB), SKOV-3. The note with it: Homo sapiens. As to the method:
(§1) Cell-Based Proliferation Assay for Determination of GI50 Values
(§2) A rapid multiwell plate assay using Sulforhodamine B (SRB) protein stain was adopted to evaluate the growth inhibitory effects of the compounds of the present invention. The screening panel of cancer cell lines includes Colo205 and HCT116 colon cancer cells, MDA-MB231 and MDA-MB435 chest cancer cells, A549 lung cancer cells, and Chinese hamster ovary cell line CHO, which were obtained from ATCC.
(§3) The cell line Colo205 is grown in RPMI 1640 medium containing 2 mM L-glutamine, 5% fetal bovine serum, and 1.0 mM sodium pyruvic acid. Cell lines A549 and MDA-MB231 are grown in RPMI 1640 medium containing 2 mM L-glutamine and 5% fetal bovine serum. The cell line MDA-MB435 is grown in DMEM medium containing 2 mM L-glutamine and 5% fetal bovine serum. The cell lines HCT 116 is grown in IMEM medium containing 2 mM L-glutamine and 5% fetal bovine serum. The CHO cell line, used as a normal control on toxicity, is grown in a special medium for cell line. For a typical screening experiment, A549 and Colo205 cells are inoculated into 96-well microtiter plates, with 100 μL per well, and 2000 and 5000 cells per well respectively for either cell line. MDA-MB435, HCT116, MDA-MB231 and CHO cells are also inoculated into 96-well microtiter plates, with 6000 cells per well. After cell inoculation, the microtiter plates are incubated at 37° C., 5% CO2, and 100% relative humidity for 24 hr in order to make cells adhere to well wall.
(§4) After 24 h incubation or time zero for drug addition, with each cell line 50 μl of cold 50% (w/v) TCA is added to wells used for control to fix cells in situ. Also at time zero, cells in other wells are treated with 100 μl of compound of different concentrations for 24 hr, 48 hr, and 72 hr respectively, with varying final compound concentration (0.1 μM, 1 μM, 5 μM 10 μM). For each treatment duration at each compound concentration, there are triplicate wells, as well as an array of control wells including a blank control well (cell culture medium only, no cells), a no-compound control well (adding same volume of cell culture medium but no compound), a positive control well (treated with Suberoylanilide hydroxamic acid (SAHA)), and normal cell well control (CHO cells). Following the addition of compounds, cell plates are incubated for 24 h, 48 h or 72 h per treatment group at 37° C., 5% CO2, and 100% relative humidity. The Treatment is then terminated by addition of cold TCA and incubation of 1 hr at 4° C. The supernatant is discarded, and all wells are washed five times with de-ioned water and air dried. Then each well is added with 100 μl sulforhodamine B (SRB) solution (0.4% (w/v) made in 1% acetic acid) and cell plates are incubated for 20-30 minutes at room temperature. After staining, unbound dye is removed by washing five times with 1% acetic acid and the plates are air dried. Bound stain is subsequently solubilized with 10 mM (200 μL) Tris base with the help of 5 min platform vibration or pipetting up and down, and the absorbance is read on an automated plate reader (M5 detection system, MD Group Ltd.) at a wavelength of 565 nm (calibrated zero reading of blank control at wavelength of 690 nm). The analytical software, XL-fit has been used to generate GI50 from a series of data thus obtained.

Data set [2] concerns HL-60. The data set is described as follows: Cell-based proliferation assay (SRB), HL-60. The note with it: Homo sapiens.
Data set [3] relates to SKOV-3. The experiment in a line: Xenograft model, SKOV-3. The note with it: i.p. Format: in vivo, mouse.
Another data set concerns Colo205. The experiment in a line: Cell-based proliferation assay (SRB), Colo205. As to conditions: Homo sapiens. As to the method: as §1, §2, §3, §4
Another data set concerns HCT-116. The data set is described as follows: Xenograft model, HCT-116. It counts as in vivo, mouse. As to conditions: i.p.
The next data set deals with MDAMB435. The data set is described as follows: Cell-based proliferation assay (SRB), MDAMB435. As to conditions: Homo sapiens. As to the method:
as §1, §2, §3, §4

A further data set concerns MDAMB231. The data set is described as follows: Cell-based proliferation assay (SRB), MDAMB231. The note with it: Homo sapiens, MDA-MB-231; Table 4. The method, then: as §1, §2, §3, §4
Data set [4] can be described thus: Microsomal stability and clearance. Format: in vitro ADME, human, mouse. As to conditions: microsomal stability; Table 4. As to the method:
Measure of Microsomal Stability and Clearance with Compounds of this Invention
Verapamil (positive control) and compound solution, both at 10 mM, are diluted 200 fold. There are six reaction time points in the experiment (0 min, 5 min, 15 min, 30 min, 45 min, and 60 min), and triplicate samples are used for each data point. There are controls for time zero and negative drug effect (negative control containing no incubation buffer or enzyme). For each compound or Verapamil sample, there are also samples treated with compound or Verapamil at concentrations of no positive effect (at 5 μM and 2.5 μM, respectively). Diluted positive control (Verapamil) and compound solution are mixed with pre-heated (37° C.) incubation buffer (100 mM potassium phosphate buffer, NADPH regeneration system solution B, NAPDH regeneration system solution A, HLM/MLM in Milli-Q ultrapure water), and incubated at 37° C. for 10 min. 100 μL of stop solution mixture is (containing 80% acetonitrile, and 20% DMSO, both of HPLC grade) is dispensed into wells of separate sampling plates into each well. At each reaction time point (0 min, 5 min, 15 min, 30 min, 45 min, and 60 min) 50 μL of reaction solution is taken from wells in the incubation plate and transferred to its corresponding well in the sampling plate, and mixed by pipetting up and down with stop solution already added there. The sampling plates are then covered, placed on ice, and centrifuged at 2,000 rpm at 4° C. for 15 min. 100 μL supernatant is then taken from each well to LC/MS analysis (or stored at 4° C. in refrigerator until analysis).
Data analysis: % remaining of compound is calculated by area of each time point with respect to time 0% remaining against time (min) curve is plotted using the first-phase exponential decay equation y=y0e(−kT) on the Prism 4.0. Results are shown in the format of TOP, K, t1/2 (min), R2 value and % remaining against time curve.

Data set [5] has as its system HL-60. The data set is described as follows: Xenograft model, HL-60. Format: in vivo, mouse. As to conditions: i.p.

Molecules are shown by their SMILES. Some results are limits rather than exact numbers.

One may read the GI50 as the concentration at which growth is held to half of that of the control. A higher GI50 goes with less potent growth inhibition. For orientation: half-life means how long it takes for the measured level to halve.

Take `CCCCCNc1cc(/C=C/C(=O)NO)ccc1SCCN(CC)CC` [Example 2, 3-(4-(2-(diethylamino)ethylthio)-3-(pentylamino)phenyl)-N-hydroxy-acrylamide]: the “T/C(%) PC-3” value in the data set on PC-3 (200 mg/kg) is recorded as 43% (200,15). Moreover, the concentration for 50% growth inhibition (GI50) amounted to 5.46 µM with SKOV-3 [1] (SK-OV-3, Table 3); 5.46 µM with SKOV-3 [1] (SK-OV-3, Table 4); 3.51 µM with HL-60 [2] (HL-60, Table 3); 3.51 µM in the data set with HL-60 [2] (HL-60, Table 4); 4.23 µM in the data set on Colo205 (COLO 205, Table 3); 4.23 µM with Colo205 (COLO 205, Table 4). The GI50 came out at 3.1 µM in the data set with MDAMB435 (MDA-MB-435, Table 3); 3.1 µM in the data set on MDAMB435 (MDA-MB-435, Table 4); 3.5 µM in the data set with MDAMB231. Also, the “T/C(%) SKOV-3” value with SKOV-3 [3] (200 mg/kg, 21 days) was 45% (200,21). For the same compound, the “T/C(%) HCT-116” value with HCT-116 (300 mg/kg, 14 days) was 31% (300,14). Moreover, the half-life in data set [4] was 1.8 h. Besides, in the data set with HL-60 [5] (200 mg/kg, 15 days), the “T/C(%) HL-60” value is reported as 40% (200,15).
For the compound `O=C(CCCCCCC(=O)Nc1ccccc1)NO` [SAHA, suberoylanilide hydroxamic acid, reference compound], the “T/C(%) PC-3” value with PC-3 (80 mg/kg) is recorded as 37% (80,15). Besides, the concentration for 50% growth inhibition (GI50) in the data set on SKOV-3 [1] (SK-OV-3, Table 3) was determined as 3.56 µM; in the data set on HL-60 [2] (HL-60, Table 3) it was 2 µM; in the data set with Colo205 (COLO 205, Table 3), 3.15 µM; in the data set on MDAMB435 (MDA-MB-435, Table 3), 4.1 µM; in the data set on MDAMB231, 5.1 µM. Further, in the data set with SKOV-3 [3] (80 mg/kg, 20 days), the “T/C(%) SKOV-3” value is >60% (80,20). Moreover, the “T/C(%) HCT-116” value in the data set on HCT-116 (80 mg/kg, 15 days) is given as >60% (80,15). Also, the half-life in data set [4] is 1.6 h. In addition, the “T/C(%) HL-60” value with HL-60 [5] (80 mg/kg, 10 days) was 45% (80,10).
On to `CCCCc1nc2cc(/C=C/C(=O)NO)ccc2n1CCN(CC)CC` [SB939, reference compound], for which the “T/C(%) PC-3” value in the data set with PC-3 (30 mg/kg) is given as >60% (30,15). Further, the GI50 in the data set on SKOV-3 [1] (SK-OV-3, Table 3) was found to be 5.25 µM; in the data set with SKOV-3 [1] (SK-OV-3, Table 4), 5.25 µM; in the data set with HL-60 [2] (HL-60, Table 3), 0.645 µM; in the data set with HL-60 [2] (HL-60, Table 4), 0.645 µM; with Colo205 (COLO 205, Table 3) it was 2.41 µM; in the data set on Colo205 (COLO 205, Table 4), 2.41 µM. The GI50 with MDAMB435 (MDA-MB-435, Table 3) was found to be 2.65 µM; in the data set with MDAMB435 (MDA-MB-435, Table 4) it was 2.65 µM; in the data set with MDAMB231, 2.35 µM. In the data set with SKOV-3 [3] (30 mg/kg, 20 days), the “T/C(%) SKOV-3” value is recorded as >60% (30,20). Besides, in the data set with HCT-116 (30 mg/kg, 14 days), the “T/C(%) HCT-116” value is recorded as 30% (30,14). In data set [4], this compound had a half-life of 1.9 h. In the data set with HL-60 [5] (30 mg/kg, 10 days), the “T/C(%) HL-60” value is reported as 51% (30,10).
